# Assay results as given in patent US20240041042A1, “1-(PYRIDYL)-5-AZINYLPYRAZOLE DERIVATIVES, AND THEIR USE FOR CONTROL OF UNDESIRED PLANT GROWTH” (Bayer Aktiengesellschaft, priority 2020, published 2024).
# How the values were obtained:
# Type in all cases: in vivo
# [1] = test system: Echinochloa crus-galli (ECHCG); experiment: Pre-emergence herbicidal action against ECHCG
# How it was run: (§1)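 Herbicide applied to soil before seedling emergence, at 600 l/ha spray volume with 0.5% additive and rates up to 320 g/ha. Evaluation: visual percentage effect, about 3 weeks later, greenhouse-grown pots compared with untreated ones.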
# [2] = test system: Amaranthus retroflexus (AMARE); experiment: Pre-emergence herbicidal action against AMARE; settings: visual scoring after about 3 weeks vs untreated controls
# How it was run: as §1
# Lolium rigidum (LOLRI) [3] = experiment: Pre-emergence herbicidal action against LOLRI
# How it was run: as §1
# [4] = test system: Polygonum convolvulus (POLCO); experiment: Post-emergence herbicidal action against POLCO
# How it was run: (§2)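 Values are percent visual activity (0% like control, 100% plants dead) after about 3 weeks in the greenhouse. Treatment: post-emergence spray at one-leaf stage, 600 l/ha spray volume, 0.5% additive, doses 320 g/ha or lower.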
# [5] = test system: Alopecurus myosuroides (ALOMY); experiment: Post-emergence herbicidal action against ALOMY; settings: visual rating about 3 weeks after treatment vs untreated controls (100% = plants have died, 0% = like control plants)
# How it was run: as §2
# Viola tricolor (VIOTR) = experiment: Pre-emergence herbicidal action against VIOTR
# How it was run: as §1
# [6] = test system: Echinochloa crus-galli (ECHCG); experiment: Post-emergence herbicidal action against ECHCG
# How it was run: as §2
# Setaria viridis (SETVI) = experiment: Pre-emergence herbicidal action against SETVI
# How it was run: as §1
# Lolium rigidum (LOLRI) [7] = experiment: Post-emergence herbicidal action against LOLRI
# How it was run: as §2
# [8] = test system: Pharbitis purpurea (PHBPU); experiment: Pre-emergence herbicidal action against PHBPU
# How it was run: as §1
Structure (SMILES),Pre-emergence action against ECHCG in % ([1]; dosage 320 g/ha),Pre-emergence action against AMARE in % ([2]; 80 g/ha),Pre-emergence action against AMARE in % ([2]; 320 g/ha),Pre-emergence action against LOLRI in % (Lolium rigidum (LOLRI) [3]; dosage 80 g/ha),Pre-emergence action against LOLRI in % (Lolium rigidum (LOLRI) [3]; dosage 320 g/ha),Post-emergence action against POLCO in % ([4]; dosage 80 g/ha),Post-emergence action against POLCO in % ([4]; dosage 320 g/ha),Post-emergence action against ALOMY in % ([5]; 80 g/ha),Post-emergence action against ALOMY in % ([5]; 320 g/ha),"Pre-emergence action against VIOTR in % (Viola tricolor (VIOTR); 320 g/ha, Viola tricolor)",Pre-emergence action against VIOTR in % (Viola tricolor (VIOTR); dosage 80 g/ha),Post-emergence action against ECHCG in % ([6]; dosage 80 g/ha),Post-emergence action against ECHCG in % ([6]; dosage 320 g/ha),Pre-emergence action against SETVI in % (Setaria viridis (SETVI); dosage 80 g/ha),Pre-emergence action against SETVI in % (Setaria viridis (SETVI); dosage 320 g/ha),Post-emergence action against LOLRI in % (Lolium rigidum (LOLRI) [7]; dosage 80 g/ha),Post-emergence action against LOLRI in % (Lolium rigidum (LOLRI) [7]; dosage 320 g/ha),Pre-emergence action against PHBPU in % ([8]; dosage 320 g/ha),Pre-emergence action against ECHCG in % ([1]; dosage 80 g/ha),Pre-emergence action against PHBPU in % ([8]; dosage 80 g/ha)
CCOC(=O)COc1nn(-c2ccccn2)c(-c2ccc(F)nc2)c1Br [Example I-02],100%,100%,100%,90%,100%,80%,80%,80%,100%,100%,100%,90%,90%,100%,100%,80%,80%,90%,,
C[C@@H](Oc1nn(-c2nc(F)ccc2F)c(-c2cncc(F)c2)c1C1CC1)C(=O)O [Example I-180],100%,100%,100%,100%,100%,80%,90%,90%,90%,100%,100%,80%,90%,100%,100%,90%,90%,90%,100%,90%
COCCOC(=O)COc1nn(-c2ncccc2C)c(-c2cncc(F)c2)c1Br [Example I-212],100%,90%,100%,80%,90%,80%,90%,90%,90%,100%,100%,90%,90%,100%,100%,,80%,90%,100%,90%
COC(=O)[C@@H](C)Oc1nn(-c2ncccc2F)c(-c2ccc(F)nc2)c1C(F)(F)F [Example I-331],100%,100%,100%,90%,100%,80%,80%,100%,100%,100%,100%,90%,90%,,90%,90%,90%,90%,80%,
CCOC(=O)[C@@H](C)Oc1nn(-c2nc(F)ccc2F)c(-c2cncc(F)c2)c1Cl [Example I-208],100%,90%,100%,90%,100%,,80%,,80%,100%,100%,80%,90%,90%,100%,,80%,90%,90%,90%
